By logP is commonly meant the decadic logarithm of the partition coefficient of the neutral form, usually between octanol and water. In general, Log P refers to the decadic logarithm of the partition coefficient of the neutral form, usually between octanol and water. The low end stands for lower lipophilicity, the high end for higher lipophilicity.

The text below walks through data of patent US20110082204A1, “N-alkylcarbonyl-amino acid ester and N-alkylcarbonyl-amino lactone compounds and their use” (priority 2006, published 2011).

In one data set the test system is philtrum skin. The data set can be described thus: Cooling sensation after ointment applied to philtrum skin. The data set is classed as in vivo, human. The following applies: for Duration of cooling, Philtrum Skin: 5 mg/ml in Aquaphor ointment on philtrum skin; for duration of cooling (FIG. 1): 40 to 70 mg of 1% wt/vol (10 mg/ml) ointment on skin above the upper lips. The text has this: A reliable place for topical application is the skin above the upper lip (above the vermilion border of the lips), on the philtrum, lateral to the philtrum until the nasolabial folds, and on the lower nostrils (subnasale). This part of the face is known to be densely innervated with cold receptors, second only to the surfaces of the eyeball and anogenitalia.
The intensity of the subjective skin sensation is rated as 0, 1, 2 or 3 with: 0 as no change; 1 as slight coolness, cold, or tingling; 2 as clear-cut signal of coolness, cold, or tingling; and 3 as robust cooling or cold. The intervals for recording sensations are 5 to 10 minutes, until two successive zeroes are obtained. The results (shown in FIG. 1) are averaged values of 4 to 6 separate trials in the same individual. The data are plotted using SigmaPlot® (Systat Software, Point Richmond Calif.) and a smoothing function with a negative exponential was used for analysis and statistical fit of the results. Confirmatory trials of cooling action of the long-acting NACE compounds were obtained in 2 to 4 individuals but not quantified for some because of the large number of chemicals that were evaluated
The onset of drug action is taken as the time to reach 2 units of coolness intensity, and offset of drug action is the time when coolness intensity drops below 2, after previously surpassing 2 units. The duration of cooling action is defined as the offset time minus the onset time. […] The quality of the sensation is noted, for example, as pure refreshing coolness, or if the sensation is accompanied by irritation (stinging or burning). The quality of the sensation is not rated for intensity.
For bioassay on the skin, approximately 30 mg was stirred and dissolved in 3 g of warm liquid Aquaphor® ointment to a yield 5 to 10 mg/ml (0.5% to 1.0 wt/vol) ointment. After cooling, 40 to 70 mg of the solid ointment was placed on the tip of a plastic stick and applied to the skin above the upper lip, on the philtrum, and lateral to the philtrum, up to the nasolabial folds, of test subjects and the onset and duration of cooling sensations noted.
The intensity of the subjective skin sensation was rated as 0, 1, 2 or 3 with: 0 as no change; 1 as slight coolness, cold, or tingling; 2 as clear signal of coolness, cold, or tingling; and 3 as robust cooling or cold. The intervals for recording sensations were 5 to 10 minutes, until two successive zeroes were obtained. The results (shown in FIG. 1) are averaged values of 4 to 6 separate trials in the same individual. The data are plotted using SigmaPlot® (Systat Software, Point Richmond, Calif., USA) and a smoothing function with a negative exponential was used for analysis and statistical fit of the results.
The onset of drug action was taken as the time to reach 2 units of coolness intensity, and offset of drug action was the time when coolness intensity drops below 2, after previously surpassing 2 units. The duration of cooling action was defined as the offset time minus the onset time. […] The quality of the sensation was also noted: such as pure refreshing coolness, or if the sensation was accompanied by irritation (stinging or burning). The quality of the sensation was not rated for intensity.
For the results in FIG. 1, the test compounds were singly applied to the skin above the upper lips at a 40 to 70 mg dose of a 1% wt/vol (10 mg/ml) ointment. Subsequently, for the results shown in Table 3, the test dose on the philtrum was reduced to a 0.5% wt/vol (5 mg/ml) ointment. The reason for choosing a lower dose was to increase the number of trials per individual and to have a reduced chance of substances accumulating in the skin.

For a further data set, the system named is eyelids/ocular surface. Nature of the data set: Cooling after wiping closed eyelids with a towelette. To be noted: eye wipes, 1 mg/ml in 5%-95% v/v ethanol-distilled water. The data set is classed as in vivo, human. As to the method: A second method of testing was to take a towelette saturated with a test solution of the cooling agent and to wipe the towelette over the dosed eyelids. The presence or absence of cooling (or irritanty, if applicable) sensations was then recorded at 10 minute intervals until the cessation of coolness in two successive intervals.
(§1) For testing of cooling compounds delivered to the eyelids with a towelette, the following procedures were used in the experiments of Table 3 and in Study 5 and 6. Three ml of liquid suspension or solution in distilled water was added to a 0.4 g cotton rectangle (50 mm×60 mm) (CS-being, Daisan Cotton, Japan) and individually sealed with a vaccuum apparatus (Foodsaver®, Jarden Corp.). Samples were stored in the freezer or refrigerator and thawed to room temperature before use. Wiping with the cotton pad delivers 40 to 45 μl of liquid composition to the eyelids ([…] to 22 μl per eye). So, if the concentration of the test substance was 1 mg/ml, the dose delivered to both eyes is a total of ˜40 to […], or ˜20 μg per eye. This method allows a reliable delivery of test substances because the dissolved or suspended particles in solution are evenly dispersed on the cotton pad in an excess volume of liquid. The presence or absence of cooling sensations was noted as being present or absent at 5 to 10 min intervals until no coolness was noticeable in two successive test intervals. Only the duration of cooling on the ocular surface was recorded, without an attempt to quantify the intensity of the sensation.

The nature of data set [1]: Log P of tested compounds. The data set is classed as physicochemical.
In the next data set the test system is sleepiness and fatigue. The data set can be described thus: Study 4: eye wipes against sleepiness and fatigue. The data set is classed as in vivo, human. To be noted: for onset and intensity of awakening effect: eye wipes, compared with the other analogs. As to the method:
as §1
Three high-powered business executives who regularly spent long hours at the negotiating tables or at meetings felt “burnt out” by their professional activities and frequently felt tired and sleepy-eyed in the social arena. They volunteered to try eye wipes containing 1.0 mg/ml of (R)-2-[((1R,2S,5R)-2-isopropyl-5-methyl-cyclohexanecarbonyl)-amino]-propionic acid isopropyl ester (D-Ala-OiPr, No. 1, in table 1) to see if the eye wipes will refresh and awaken their interest during meetings. […] They became alert and vigilant and more pro-active in their social milieu.

The subject of another data set is face. Nature of the data set: Study 2: towelette used to wipe the face in hot weather. The data set is classed as in vivo, human. To be noted: for duration of pleasant cooling sensations: 10% propylene glycol/90% water. On the procedure: 2-Isopropyl-5-methyl-cyclohexanecarbonyl D-alanine methyl ester was dissolved in warm 10% propylene-glycoV90% distilled water solution to give a concentration of either 0.1 or 0.5% wt/vol (1 or 5 mg/mL). Six to seven milliliters of these solutions were then applied with a pipette onto a paper napkin (Luncheon Napkins, Kirkland Signature brand from Costco, Inc.) The napkin was 1-ply with a 30.4×29.5 cm dimension. Each napkin was then hermetically sealed in a plastic envelope (Foodsaver by Tilia). On two separate occasions involving golfing trips to Los Angeles, Calif., USA, where air temperatures exceeded […] (90° F.), these towelettes were used to wipe the face. Pleasant cooling sensations were obtained that lasted for about 10 minute for the 0.1% concentration towelette and about 60 minutes for the 0.5% towelette.

In a further data set the test system is periorbital skin. The data set can be described thus: Ointment applied to periorbital skin: coolness, eye irritancy, alerting (Study 3). The data set is classed as in vivo, human. The source says: The ointment was also applied to the periorbital skin (upper and lower eyelids and on skin adjacent to the lateral canthus) for tests of irritancy near the eyes, and the subject is asked if irritation is present or absent. The intensity of the eye sensation is not rated.
For tests of irritancy near the eyes in Study 3 and 4, the ointment was applied to the periorbital skin (upper and lower eyelids and on skin adjacent to the lateral canthus), and the subject asked if irritation is present or absent. The intensity of the eye sensation is not rated, but just noted as being present or absent
A 1% preparation of 2-isopropyl-5-methyl-cyclohexanecarbonyl D-alanine methyl ester in Aquaphor® ointment was applied bilaterally to the periorbital area of four individuals. […] This experiment was then repeated three days later in the evening with the same individuals whose occupations required daylong activities before a computer screen.

The subject of another data set is allergic conjunctivitis. Nature of the data set: Study 5: eye wipes in allergic conjunctivitis. The data set is classed as in vivo, human. On the procedure:
as §1
A laboratory scientist suffered from seasonal allergic conjunctivitis. This condition was severely aggravated when […] started doing experiments with laboratory animals (rats and mice) and […] became sensitized to the associated allergens. The conjunctivitis was not relieved by oral or topical eye drop antihistamines and the subject was reluctant to consider the use of anti-inflammatory steroid ointments. Upon examination, their eyes were blood-shot and watery and they kept rubbing their eyelids with their fingers even though they knew this action may further aggravate the itch and discomfort. They volunteered to try eye wipes containing 1.0 mg/ml of (R)-2-[((1 R,2S,5R)-2-isopropyl-5-methyl-cyclohexanecarbonyl)-amino]-acetic isopropyl ester (Gly-OiPr, No. 2, in table 1). The relief of itch and discomfort was obtained within 5 minutes and lasted for at least four hours.

The subject of a further data set is periorbital pain. Nature of the data set: Study 6: eye wipes in persistent periorbital pain. The data set is classed as in vivo, human. The following applies: eye wipes 1.0 mg/ml, one patient, three occasions. As to the method:
as §1
A person suffered from “dry eyes” or keratoconjunctivitis sicca which was managed by artificial tears and eye drops containing lubricants. […]

In data set [2] the test system is dorsal surface of the tongue. The following applies: threshold amount producing cooling on tongue of human volunteers; values from Watson US 04178459; cited from earlier work.
Setting [3] is: 1% in Aquaphor ointment, periorbital area, four individuals.
The mark [4] stands for this setting: eye wipes 1.0 mg/ml, one subject.

SMILES strings stand for the structures. Some results are limits rather than exact numbers.

Turning to `CCOC(=O)[C@@H](C)NC(=O)[C@@H]1C[C@H](C)CC[C@H]1C(C)C` [D-Ala Et Ester, (R)-2-[((1R,2S,5R)-2-isopropyl-5-methyl-cyclohexanecarbonyl)-amino]-propionic acid ethyl ester], in the data set with philtrum skin, the “Duration of cooling, Philtrum Skin” value was 103 min and the “duration of cooling (FIG. 1)” value amounted to 2.4 h. Besides, the “Duration of cooling, Eyelids/Ocular Surface” value in the data set on eyelids/ocular surface turned out to be 180 min. For the same molecule, the logP in [1] came out at 3.1. In the data set on sleepiness and fatigue, the “onset and intensity of awakening effect” value was “faster onset and more intense awakening effect”.
With `COC(=O)[C@@H](C)NC(=O)[C@@H]1C[C@H](C)CC[C@H]1C(C)C` [D-Ala Me Ester, (R)-2-[((1R,2S,5R)-2-isopropyl-5-methyl-cyclohexanecarbonyl)-amino]-propionic acid methyl ester], in the data set on philtrum skin, the “Duration of cooling, Philtrum Skin” value worked out at 77 min and the “duration of cooling (FIG. 1)” value stood at 1.9 h. Also, the “Duration of cooling, Eyelids/Ocular Surface” value with eyelids/ocular surface worked out at 120 min. Besides, the logP in data set [1] turned out to be 2.8. Besides, the “duration of pleasant cooling sensations” value in the data set on face (0.1% wt/vol (1 mg/mL) towelette) is on record as “about 10 minute”. Besides, the eye irritation entry in the data set with face (0.1 or 0.5% towelette) is listed as “No eye irritation was observed”. For the same molecule, the “duration of pleasant cooling sensations” value with face (0.5% wt/vol (5 mg/mL) towelette) was “about 60 minutes”. Also, in the data set with periorbital skin (setting [3]), the “Onset of coolness on the skin” value came to 1 min, the “duration of alerting effect” value is reported as “about one” and the “duration of coolness on the skin (average)” value is 30 min. For the same molecule, the “irritation of skin / eye surfaces” value in the data set with periorbital skin (ointment on periorbital area) is listed as “No irritation of the eye surfaces was noted”. Besides, the “onset and intensity of awakening effect” value in the data set on sleepiness and fatigue is “faster onset and more intense awakening effect”.
For the molecule `CC(C)OC(=O)[C@@H](C)NC(=O)[C@@H]1C[C@H](C)CC[C@H]1C(C)C` [D-Ala iPr Ester, (R)-2-[((1R,2S,5R)-2-isopropyl-5-methyl-cyclohexanecarbonyl)-amino]-propionic acid isopropyl ester], in the data set with philtrum skin, the “Duration of cooling, Philtrum Skin” value came out at 34 min. The “Duration of cooling, Eyelids/Ocular Surface” value with eyelids/ocular surface is 360 min. In [1], this molecule had a lipophilicity (logP) of 3.7. Moreover, in the data set with sleepiness and fatigue (eye wipes 1.0 mg/ml, three executives), the “effect on sleepiness and fatigue” value was “the sense of sleepiness and fatigue was reduced for the next several hours”.
With `CC(C)OC(=O)CNC(=O)[C@@H]1C[C@H](C)CC[C@H]1C(C)C` [Gly iPr Ester, (R)-2-[((1R,2S,5R)-2-isopropyl-5-methyl-cyclohexanecarbonyl)-amino]-acetic acid isopropyl ester], in the data set on philtrum skin, the “Duration of cooling, Philtrum Skin” value amounted to 27 min. The “Duration of cooling, Eyelids/Ocular Surface” value with eyelids/ocular surface turned out to be 300 min. In [1], this molecule gave a log partition coefficient (logP) of 3.3. Moreover, in the data set on allergic conjunctivitis (setting [4]), the “duration of relief of itch and discomfort” value is reported as “at least four”; the “time to relief of itch and discomfort” value was no more than 5 min. Moreover, in the data set with allergic conjunctivitis (wipes used as needed for three days), the “over-all itchiness and redness” value was “over-all itchiness and redness were reduced significantly”. The “relief of periorbital pain” value in the data set with periorbital pain is recorded as “immediate relief”.
Consider `CCNC(=O)C1CC(C)CCC1C(C)C` (stereo not shown) [WS-3, reference compound], for which the “duration of cooling (FIG. 1)” value in the data set on philtrum skin stood at 0.3 h. The “duration of action / onset on philtrum skin” value in the data set on philtrum skin (Study 1) is reported as “short duration of action (less than 1 hour) on the philtrum skin or slow onset (more than 5 minutes)”. In addition, the “Log P” value in data set [1] turned out to be 3.7. Also, the “irritation of skin / eye surfaces” value with periorbital skin (ointment on periorbital area) is “produced significant skin and eye irritation”. The “skin coolness and refreshment” value in the data set on periorbital skin (ointment on periorbital area, conditions similar to Study 3) is reported as “did not enhance skin coolness or provide satisfactory refreshment”. Further, in data set [2], the “Threshold tongue” value is 0.2 µg.
